According to ChEMBL document CHEMBL1133342, “A convenient extension of the Wessely-Moser rearrangement for the synthesis of substituted alkylaminoflavones as neuroprotective agents in vitro” (Bioorg Med Chem Lett, 2000):

Assays:
[1] = Compound was tested in vitro for neuroprotective activity against L-homocysteic acid cytotoxicity in murine HT-22 hippocampal cell cultures by MTT reduction assay; type: functional, Mus musculus, Hippocampus
[2] = Compound was tested in vitro for intrinsic neurotoxicity against murine HT-22 hippocampal cell cultures by LDH assay; design: species or system Hippocampus; conditions: mouse, HT-22 hippocampal cells; read-out: TC50 (the source's name)
[3] = Compound was tested in vitro for neuroprotective activity against L-homocysteic acid cytotoxicity in murine HT-22 hippocampal cell cultures by LDH assay; type: functional, Mus musculus, Hippocampus
[4] = Compound was tested in vitro for intrinsic neurotoxicity against murine HT-22 hippocampal cell cultures by MTT reduction assay; design: species or system Hippocampus; conditions: mouse, HT-22 hippocampal cells; read-out: TC50 (the source's name)
[5] = Maximum tolerated concentration in vitro against murine HT-22 hippocampal cell cultures by MTT reduction assay; type: functional, Mus musculus, Hippocampus
[6] = Maximum tolerated concentration in vitro against murine HT-22 hippocampal cell cultures by LDH assay; type: functional, Mus musculus, Hippocampus

| Compound | PC50 [1] [µM] | CC50 [2] [µM] | PC50 [3] [µM] | CC50 [4] [µM] | MTC [5] [µM] | MTC [6] [µM] |
| --- | --- | --- | --- | --- | --- | --- |
| CCCNc1c(O)cc(O)c2c(=O)cc(-c3ccccc3)oc12 | 7 | 28 | 8 | 14 | 5 | 25 |
| CCCNc1c(O)cc2oc(-c3ccccc3)cc(=O)c2c1O | 5.2 | 176 | 5.5 | 10 | 5 | 100 |
| CC(C)CNc1c(O)cc(O)c2c(=O)cc(-c3ccccc3)oc12 | 4.6 | 12 | 4.2 | 12 | 10 | 10 |
| CC(C)CCNc1c(O)cc2oc(-c3ccccc3)cc(=O)c2c1O | 5.2 | 116 | 5.2 | 16 | 5 | 100 |
| CC(C)CCNc1c(O)cc(O)c2c(=O)cc(-c3ccccc3)oc12 | 5.3 | 16 | 5.5 | 12 | 10 | 10 |
| CC(C)Nc1c(O)cc2oc(-c3ccccc3)cc(=O)c2c1O | 5.1 | 152 | 6.6 | 18 | 10 | 100 |
| C=CCNc1c(O)cc(O)c2c(=O)cc(-c3ccccc3)oc12 | >5 | 11 | >10 | 18 | 5 | 10 |
